{
  "source": "ChEMBL document CHEMBL1150925",
  "about": "“Gibbilimbols A-D, cytotoxic and antibacterial alkenylphenols from Piper gibbilimbum” (J Nat Prod, 1998)",
  "note": "Activity calls are given as the source filed them. The calls are words filed in the database; no cut-off is given here.",
  "data": [
    {"tested_on": "not listed separately", "test": "Toxicity in Artemia salina", "type": "organism-based", "conditions": "in vivo, read-out: LD50 (the source's name)", "units": {"LC50": "µg/mL"}, "values": [
      {"smiles": "CCCCC/C=C/CCCc1ccc(O)cc1", "note": "[GIBBILIMBOL A]", "LC50": 5.3},
      {"smiles": "CCCCCC/C=C/CCc1ccc(O)cc1", "note": "[GIBBILIMBOL B]", "LC50": 4.9},
      {"smiles": "CCC/C=C/CCCc1ccc(O)cc1", "note": "[GIBBILIMBOL C]", "LC50": 5.5},
      {"smiles": "CCCC/C=C/CCc1ccc(O)cc1", "note": "[GIBBILIMBOL D]", "LC50": 5}
    ]},
    {"tested_on": "KB", "test": "Cytotoxicity against human KB cells", "type": "functional", "conditions": "read-out: ED50 (the source's name)", "units": {"EC50": "µg/mL"}, "values": [
      {"smiles": "CCCCC/C=C/CCCc1ccc(O)cc1", "note": "[GIBBILIMBOL A]", "EC50": 4.4},
      {"smiles": "CCCCCC/C=C/CCc1ccc(O)cc1", "note": "[GIBBILIMBOL B]", "EC50": 3.9},
      {"smiles": "CCC/C=C/CCCc1ccc(O)cc1", "note": "[GIBBILIMBOL C]", "EC50": 7.8},
      {"smiles": "CCCC/C=C/CCc1ccc(O)cc1", "note": "[GIBBILIMBOL D]", "EC50": 2.1}
    ]},
    {"tested_on": "Staphylococcus epidermidis", "test": "Antibacterial activity against Staphylococcus epidermidis at 60 ug/disk by paper disk diffusion technique", "type": "functional", "conditions": "read-out: IZ", "units": {"zone of inhibition at 60 µg/disc": "mm"}, "values": [
      {"smiles": "CCCCC/C=C/CCCc1ccc(O)cc1", "note": "[GIBBILIMBOL A]", "zone of inhibition at 60 µg/disc": "< 2"},
      {"smiles": "CCCCCC/C=C/CCc1ccc(O)cc1", "note": "[GIBBILIMBOL B]", "zone of inhibition at 60 µg/disc": "< 2"},
      {"smiles": "CCC/C=C/CCCc1ccc(O)cc1", "note": "[GIBBILIMBOL C]", "zone of inhibition at 60 µg/disc": "< 2"},
      {"smiles": "CCCC/C=C/CCc1ccc(O)cc1", "note": "[GIBBILIMBOL D]", "zone of inhibition at 60 µg/disc": "< 2"}
    ]},
    {"tested_on": "Bacillus cereus", "test": "Antibacterial activity against Bacillus cereus at 60 ug/disk by paper disk diffusion technique", "type": "functional", "conditions": "read-out: IZ", "units": {"zone of inhibition at 60 µg/disc": "mm"}, "values": [
      {"smiles": "CCCCC/C=C/CCCc1ccc(O)cc1", "note": "[GIBBILIMBOL A]", "zone of inhibition at 60 µg/disc": "< 2"},
      {"smiles": "CCCCCC/C=C/CCc1ccc(O)cc1", "note": "[GIBBILIMBOL B]", "zone of inhibition at 60 µg/disc": "< 2"},
      {"smiles": "CCC/C=C/CCCc1ccc(O)cc1", "note": "[GIBBILIMBOL C]", "zone of inhibition at 60 µg/disc": "< 2"},
      {"smiles": "CCCC/C=C/CCc1ccc(O)cc1", "note": "[GIBBILIMBOL D]", "zone of inhibition at 60 µg/disc": "< 2"}
    ]},
    {"tested_on": "Pseudomonas aeruginosa", "test": "Antibacterial activity against Pseudomonas aeruginosa at 60 ug/disk by paper disk diffusion technique", "type": "functional, organism-based", "conditions": "not given", "values": [
      {"smiles": "CCCCC/C=C/CCCc1ccc(O)cc1", "note": "[GIBBILIMBOL A]", "Activity": "inactive"},
      {"smiles": "CCCCCC/C=C/CCc1ccc(O)cc1", "note": "[GIBBILIMBOL B]", "Activity": "inactive"},
      {"smiles": "CCC/C=C/CCCc1ccc(O)cc1", "note": "[GIBBILIMBOL C]", "Activity": "inactive"},
      {"smiles": "CCCC/C=C/CCc1ccc(O)cc1", "note": "[GIBBILIMBOL D]", "Activity": "inactive"}
    ]},
    {"tested_on": "Staphylococcus epidermidis", "test": "Antibacterial activity against Staphylococcus epidermidis after 24 hrs by broth microdilution method", "type": "functional", "conditions": "not given", "units": {"MIC": "µg/mL"}, "values": [
      {"smiles": "O=C(N[C@H](CO)[C@H](O)c1ccc([N+](=O)[O-])cc1)C(Cl)Cl", "note": "[CHLORAMPHENICOL]", "MIC": 8},
      {"smiles": "CCCCC/C=C/CCCc1ccc(O)cc1", "note": "[GIBBILIMBOL A]", "MIC": 4},
      {"smiles": "CCCCCC/C=C/CCc1ccc(O)cc1", "note": "[GIBBILIMBOL B]", "MIC": 2},
      {"smiles": "CCC/C=C/CCCc1ccc(O)cc1", "note": "[GIBBILIMBOL C]", "MIC": 2},
      {"smiles": "CCCC/C=C/CCc1ccc(O)cc1", "note": "[GIBBILIMBOL D]", "MIC": 2}
    ]},
    {"tested_on": "Bacillus cereus", "test": "Antibacterial activity against Bacillus cereus after 24 hrs by broth microdilution method", "type": "functional", "conditions": "not given", "units": {"MIC": "µg/mL"}, "values": [
      {"smiles": "O=C(N[C@H](CO)[C@H](O)c1ccc([N+](=O)[O-])cc1)C(Cl)Cl", "note": "[CHLORAMPHENICOL]", "MIC": 4},
      {"smiles": "CCCCC/C=C/CCCc1ccc(O)cc1", "note": "[GIBBILIMBOL A]", "MIC": 4},
      {"smiles": "CCCCCC/C=C/CCc1ccc(O)cc1", "note": "[GIBBILIMBOL B]", "MIC": 4},
      {"smiles": "CCC/C=C/CCCc1ccc(O)cc1", "note": "[GIBBILIMBOL C]", "MIC": 2},
      {"smiles": "CCCC/C=C/CCc1ccc(O)cc1", "note": "[GIBBILIMBOL D]", "MIC": 2}
    ]}
  ]
}
